# Reference: patent US10543215B2, “Combination therapy of cardiac myosin activator and sinus node if current inhibitor” (AMGEN INC., priority 2015, dated 2020)
# Test system: conscious telemetered beagle dogs
# Experiment: Left-ventricular hemodynamic, mechanical and timing indices by radio-telemetry before and during IV OM or vehicle, on repeated oral IVA or placebo
# Format: in vivo, beagle dog
# Procedure: Healthy male beagle dogs (n=7) instrumented with radio-telemetry units providing continuous single-lead electrocardiogram (ECG), as well as systemic (arterial, AoP) and left-ventricular (LVP) pressure signals were used for this study. Following sling acclimation, the animals were assigned to receive repeated oral (via gavage) treatments with either Ivabradine (IVA, 5 mg/kg bid) or a volume-matched placebo-control (sterile water, CTRL) for 5 days, administered at a dose volume of 10 mL/kg, in a cross over design.
# The animals were sling-restrained and were subjected to acute intravenous administration of either sterile water (VEH, on Days 4 and 11 of dosing) or Omecamtiv Mecarbil (OM, on Days 5 and 12 of dosing). OM treatments were performed over a 3-hour infusion duration, following a dose-escalation design targeting plasma concentrations of 600 and 1000 ng/mL (each over 90 minutes, with a 30 minute loading infusion followed by a 60 minute maintenance infusion) for a cumulative dose of 5.293 mg/kg (as shown in Table A below). The IV vehicle treatments were time- and volume-matched.
# Telemetered data were collected continuously for at least 90 minutes prior to and during dosing, as well as for at least 20 hours post-dose. The LVP and ECG signals were digitized at a sampling rate of at least 1000 Hz. The data were analyzed for heart rate (HR) and left-ventricular hemodynamic/mechanical indices that were obtained from the pressure waveform, including mean systolic (MSP) and end-diastolic (filling, EDP) pressures, the peak rates of pressure change during systole/diastole (dP/dtmax/min), as well as the time-constant of relaxation (tau) and a contractility index (CI: dP/dtmax normalized by the pressure at dP/dtmax). The data were also analyzed for systolic and diastolic intervals, including the estimated durations of the systolic ejection (SET), contraction (CT), active relaxation (RT) and filling intervals (FT), as well as the systolic-to-diastolic interval ratio (S/D: SET/RT+FT), which were derived from the left-ventricular pressure waveform.
# The left-ventricular indices were evaluated only in the sling-restrained animals before and during IV treatment with OM or vehicle. Cardiovascular responses at each dose level were monitored for up to 90 minutes, i.e., over 3 hours total (during IV dosing of VEH and OM on Days 4, 5, 11, and 12 in the dose administration paradigm). Overall, in-sling cardiovascular data are reported at the following pre-determined/targeted time points: prior to dosing (i.e., at baseline, PRE) and approximately at the end of each infusion period (i.e., up to 4 time points during dosing, D1 to D4). Signals were analyzed continuously in 5-minute epochs, with pre-administration (i.e., PRE) values representing the overall mean over at least 5-epochs (i.e., 25 minutes) taken immediately prior to the onset of dosing, while during-dosing values reflect 5-minute averages (i.e., 1 epoch) taken prior to the (estimated) termination of each infusion. Data are presented as both means with standard deviations in summarizing tables/figure; beat-to-beat plots against heart rate are part of the study file.
# [1] = D1, end of 30-min loading infusion, target OM 600 ng/mL
# [2] = D2, end of 60-min maintenance infusion, target OM 600 ng/mL
# [3] = D3, end of 30-min loading infusion, target OM 1000 ng/mL
# [4] = D4, end of 60-min maintenance infusion, target OM 1000 ng/mL
# [5] = PRE, before IV dosing (baseline)
# [6] = baseline after repeated oral IVA 5 mg/kg bid, mean pre-dosing averages across study days
# [7] = baseline after repeated oral IVA 5 mg/kg bid, vs. placebo-control
compound,measurement,setting,value
COc1cc2c(cc1OC)CC(=O)N(CCCN(C)C[C@H]1Cc3cc(OC)c(OC)cc31)CC2 [IVA],CT % vs. PRE,[1],4%
same,CT (contraction time),[1],63.8 ms
same,EDP % vs. PRE,[1],−10%
same,EDP (left-ventricular end-diastolic pressure),[1],14.4 mmHg
same,FT % vs. PRE,[1],11%
same,FT (filling time),[1],586 ms
same,HR % vs. PRE,[1],−9%
same,HR (heart rate),[1],76 bpm
same,MSP % vs. PRE,[1],0%
same,MSP (left-ventricular mean systolic pressure),[1],138 mmHg
same,RT % vs. PRE,[1],1%
same,RT (relaxation time),[1],88 ms
same,S/D % vs. PRE,[1],−4%
same,"S/D (systolic to diastolic ratio, SET/RT + FT)",[1],0.2
same,SET % vs. PRE,[1],4%
same,SET (systolic ejection time),[1],161 ms
same,Tau % vs. PRE,[1],3 ± 2%
same,Tau (left-ventricular relaxation time-constant),[1],28.7 ± 1.7 ms
same,Vmax % vs. PRE,[1],0 ± 1%
same,Vmax (estimated maximal velocity of myocardial contractile-element shortening),[1],36.9 ± 1.3 s⁻¹
same,dP/dtmax % vs. PRE,[1],−2%
same,dP/dtmax (peak rate of LV pressure change during systole),[1],"2,606 mmHg/s"
same,dP/dtmin % vs. PRE,[1],−2%
same,dP/dtmin (peak rate of LV pressure change during diastole),[1],"−2,365 mmHg/s"
same,CT % vs. PRE,[2],9%
same,CT (contraction time),[2],67.2 ms
same,EDP % vs. PRE,[2],0%
same,EDP (left-ventricular end-diastolic pressure),[2],15.3 mmHg
same,FT % vs. PRE,[2],8%
same,FT (filling time),[2],571 ms
same,HR % vs. PRE,[2],−9%
same,HR (heart rate),[2],76 bpm
same,MSP % vs. PRE,[2],5%
same,MSP (left-ventricular mean systolic pressure),[2],145 mmHg
same,RT % vs. PRE,[2],4%
same,RT (relaxation time),[2],90 ms
same,S/D % vs. PRE,[2],0%
same,"S/D (systolic to diastolic ratio, SET/RT + FT)",[2],0.25
same,SET % vs. PRE,[2],6%
same,SET (systolic ejection time),[2],163 ms
same,Tau % vs. PRE,[2],6 ± 2%
same,Tau (left-ventricular relaxation time-constant),[2],29.3 ± 1.0 ms
same,Vmax % vs. PRE,[2],−1 ± 1%
same,Vmax (estimated maximal velocity of myocardial contractile-element shortening),[2],36.7 ± 0.8 s⁻¹
same,dP/dtmax % vs. PRE,[2],2%
same,dP/dtmax (peak rate of LV pressure change during systole),[2],"2,704 mmHg/s"
same,dP/dtmin % vs. PRE,[2],4%
same,dP/dtmin (peak rate of LV pressure change during diastole),[2],"−2,492 mmHg/s"
same,CT % vs. PRE,[3],6%
same,CT (contraction time),[3],64.9 ms
same,EDP % vs. PRE,[3],−4%
same,EDP (left-ventricular end-diastolic pressure),[3],14.5 mmHg
same,FT % vs. PRE,[3],24%
same,FT (filling time),[3],651 ms
same,HR % vs. PRE,[3],−17%
same,HR (heart rate),[3],69 bpm
same,MSP % vs. PRE,[3],3%
same,MSP (left-ventricular mean systolic pressure),[3],143 mmHg
same,RT % vs. PRE,[3],6%
same,RT (relaxation time),[3],92 ms
same,S/D % vs. PRE,[3],−8%
same,"S/D (systolic to diastolic ratio, SET/RT + FT)",[3],0.23
same,SET % vs. PRE,[3],8%
same,SET (systolic ejection time),[3],167 ms
same,Tau % vs. PRE,[3],5 ± 3%
same,Tau (left-ventricular relaxation time-constant),[3],29.2 ± 1.0 ms
same,Vmax % vs. PRE,[3],1 ± 2%
same,Vmax (estimated maximal velocity of myocardial contractile-element shortening),[3],37.2 ± 0.7 s⁻¹
same,dP/dtmax % vs. PRE,[3],0%
same,dP/dtmax (peak rate of LV pressure change during systole),[3],"2,662 mmHg/s"
same,dP/dtmin % vs. PRE,[3],1%
same,dP/dtmin (peak rate of LV pressure change during diastole),[3],"−2,425 mmHg/s"
same,CT % vs. PRE,[4],11%
same,CT (contraction time),[4],67.9 ms
same,EDP % vs. PRE,[4],−9%
same,EDP (left-ventricular end-diastolic pressure),[4],14.2 mmHg
same,FT % vs. PRE,[4],9%
same,FT (filling time),[4],577 ms
same,HR % vs. PRE,[4],−12%
same,HR (heart rate),[4],74 bpm
same,MSP % vs. PRE,[4],4%
same,MSP (left-ventricular mean systolic pressure),[4],143 mmHg
same,RT % vs. PRE,[4],5%
same,RT (relaxation time),[4],91 ms
same,S/D % vs. PRE,[4],0%
same,"S/D (systolic to diastolic ratio, SET/RT + FT)",[4],0.25
same,SET % vs. PRE,[4],7%
same,SET (systolic ejection time),[4],165 ms
same,Tau % vs. PRE,[4],3 ± 2%
same,Tau (left-ventricular relaxation time-constant),[4],28.8 ± 1.5 ms
same,Vmax % vs. PRE,[4],1 ± 1%
same,Vmax (estimated maximal velocity of myocardial contractile-element shortening),[4],37.3 ± 1.0 s⁻¹
same,dP/dtmax % vs. PRE,[4],2%
same,dP/dtmax (peak rate of LV pressure change during systole),[4],"2,702 mmHg/s"
same,dP/dtmin % vs. PRE,[4],2%
same,dP/dtmin (peak rate of LV pressure change during diastole),[4],"−2,457 mmHg/s"
same,CT (contraction time),[5],61.4 ± 0.6 ms
same,EDP (left-ventricular end-diastolic pressure),[5],15.7 mmHg
same,FT (filling time),[5],535 ± 46 ms
same,HR (heart rate),[5],85 bpm
same,MSP (left-ventricular mean systolic pressure),[5],138 mmHg
same,RT (relaxation time),[5],87 ± 1 ms
same,"S/D (systolic to diastolic ratio, SET/RT + FT)",[5],0.26
same,SET (systolic ejection time),[5],155 ± 2 ms
same,Tau (left-ventricular relaxation time-constant),[5],27.9 ± 1.4 ms
same,Vmax (estimated maximal velocity of myocardial contractile-element shortening),[5],37.1 ± 1.1 s⁻¹
same,dP/dtmax (peak rate of LV pressure change during systole),[5],"2,661 mmHg/s"
same,dP/dtmin (peak rate of LV pressure change during diastole),[5],"−2,407 mmHg/s"
same,CT,[6],61 ± 1 ms
same,FT,[6],577 ± 49 ms
same,HR,[6],82 ± 5 bpm
same,LV-EDP,[6],16 ± 2 mmHg
same,LV-MSP,[6],137 ± 3 mmHg
same,LV-Tau,[6],28.5 ± 1.4 ms
same,LV-Vmax,[6],37.0 ± 1.0 s⁻¹
same,LV-dP/dtmax,[6],"2,644 ± 79 mmHg/s"
same,LV-dP/dtmin,[6],"−2,367 ± 91 mmHg/s"
same,RT,[6],88 ± 1 ms
same,S/D,[6],0.24 ± 0.01
same,SET,[6],157 ± 2 ms
same,CT change vs. CTRL,[7],(−9 ± 1) %
same,LV-MSP change vs. CTRL,[7],(4 ± 2) %
same,LV-Tau change vs. CTRL,[7],(−3 ± 3) %
same,LV-Vmax change vs. CTRL,[7],(5 ± 3) %
same,LV-dP/dtmin change vs. CTRL,[7],(8 ± 3) %
same,RT change vs. CTRL,[7],(−2 ± 2) %
same,SET change vs. CTRL,[7],(4 ± 2) %
